Data on 6 molecules can be found in paper PMC11823609, “Advancements in the fight against globally distributed OXA-48 carbapenemase: evaluating the new generation of carbapenemase inhibitors” (Antimicrobial Agents and Chemotherapy, 2025).

As a reminder, the koff is the rate constant with which the complex falls apart. Broadly, the Kd is the concentration at which binding is half-saturated. A lower Kd goes with a tighter complex.

In brackets after ≈: the same amount, converted by molar mass. Read-outs that look alike come from different tables or passages of the source.

For test [1], the system named is E. coli TG1 and HB4 transformants. The test can be described thus: MIC summary over E. coli transformants. The test is classed as cell-based, Escherichia coli. The following applies: for decrease of ertapenem MIC with BLI / effect of ertapenem/BLI on bacterial growth: OXA-48-producing E. coli hosts, BLI 4 mg/L; for MICs of inhibitor alone (range over strains): TG1 and HB4 E. coli. The source says:
The E. coli HB4 strain was used to gain a more complete perspective, by evaluating the involvement in resistance of a low permeability background with the carbapenemase OXA-48, as well as coproduction of an ESBL and the carbapenemase; thus, the ESBL CTX-M-14 and OXA-48 were cloned together and separately into E. coli HB4. The characteristics of these strains and transformants are summarized in Table S1, and the cloning procedures are outlined in the supplemental methods.
(§1) The MICs of each of the individual compounds (antibiotics or inhibitors) were also determined. The MICs were determined for the E. coli isogenic expressing OXA-48 (and both OXA-48 and CTX-M-14) to assess their activity against the carbapenemase; MICs were also determined for the 18 Enterobacterales clinical isolates in order to evaluate the new inhibitors against also their resistance concomitant mechanisms. The MICs were determined in triplicate experiments, and the EUCAST 13.0 clinical breakpoints were followed (http://www.eucast.org/clinical_breakpoints).
(§2) For comparative evaluation of the activity of each inhibitor alone against the carbapenemase OXA-48, all inhibitors (at 4 mg/L) were tested in the presence of a carbapenem (ertapenem, adequate substrate) and a cephalosporin (ceftazidime, poor substrate) as reporter substrates. This prevented any possible masking effect produced by the different partner antibiotics. These assays were also performed with isogenic transformants and clinical isolates.

In test [2] the target is T1, OXA-48 (Klebsiella pneumoniae, UniProt Q6XEC0). The test can be described thus: Dissociation rate (koff) by jump dilution; t1/2 and Kd. The test is classed as biochemical. Details: These primers amplified the blaOXA-48 gene without the signal peptide; GST (glutathione S-transferase, pGEX-6P-1) (N, cleaved yes); made in house; host or cells: E. coli BL21. The following applies: for residence time: read-out: t1/2 (residence time); for Kd: koff/kon. How it is done:
(§3) OXA-48 was cloned, produced, and purified following the procedures described in the supplemental methods. The steady-state inhibition constants (Ki app) and kinetics of inhibition (such as k2/K , koff, Kd, and tn) were determined following previously established protocols, are also outlined in the supplemental methods.
The dissociation rate constant (koff) was determined using a “jump dilution” method in which OXA-48 enzyme activity was monitored over time as the BLI dissociates. […] Subsequently, the reaction mixture was diluted 10,000-fold dilution in the reaction buffer. […] Absorbance was recorded at 60-s intervals over a 2-h period at RT. The resulting reaction progress curve was fitted to equation 4, which includes the exponential function (6). […] From the fit, GraphPad Prism software, (MA, USA) also calculates the dissociation half-time (t1/2), in min.
koff was obtained directly from the dissociation experiment and kon was previously calculated, thus finally Kd was calculated as the fraction between koff and kon.
P= Vs x t + (V0-Vs) x [1– exp ^(-k^off x ^t)] / koff (4)

Test [3] has as its target T1, OXA-48. Nature of the test: Partition ratio / turnover number (tn), I/E for >90% inhibition. Type of test: biochemical. Details: These primers amplified the blaOXA-48 gene without the signal peptide; GST (glutathione S-transferase, pGEX-6P-1) (N, cleaved yes); made in house; host or cells: E. coli BL21. The following applies: 15 min incubation, 500 nM enzyme. How it is done: as §3
The evaluation involved exposure to increasing concentrations of inhibitors plus 500 nM of enzyme, at different molar I/E ratios.

In test [4] the test system is OXA-48-producing Enterobacterales clinical isolates. Nature of the test: MIC summary over clinical isolates. The test is classed as cell-based. How it is done: The efficacy of these new BLIs was also evaluated against 18 genetically diverse WGS-characterized collection of OXA-48-positive Enterobacterales recovered as part of the Carbapenem-resistant Enterobacterales Genome Database Project (https://genomes.cnag.cat/incredble) listed in Table S2 ([13]). Combinations of clinical isolates (five pairs of Klebsiella pneumoniae, two pairs of Enterobacter cloacae, and two pairs of E. coli) were chosen for analysis: (i) nine strains carrying ESBLs; and (ii) nine strains (genetically closer available strains) without ESBLs.
as §1, §2

Test [5] deals with E. coli TG1. The test can be described thus: microbe, parasite or virus in culture. The test is classed as cell-based. The following applies: Escherichia coli. The method, boiled down: (§4)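 Against isogenic E. coli expressing OXA-48, or OXA-48 with CTX-M-14, in TG1 or the low-permeability HB4 background, MICs were measured in triplicate. Inhibitors at 4 mg/L were given with ertapenem or ceftazidime. EUCAST 13.0 criteria were applied.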

The target of test [6] is T1, OXA-48. Nature of the test: Steady-state inhibition constant (Ki app), nitrocefin reporter. Details: These primers amplified the blaOXA-48 gene without the signal peptide; GST (glutathione S-transferase, pGEX-6P-1) (N, cleaved yes); made in house; host or cells: E. coli BL21. Type of test: biochemical. The following applies: nitrocefin 300 µM reporter, 25 °C, pH 7.4. How it is done: as §3
(§5) Ki app serves as an equilibrium constant, calculable from […] conditions and indicates the formation of the enzyme acyl E-S complex. […] Plotting the inverse initial velocities (1/V0) against inhibitory concentrations ([I]) facilitated fitting the data to a linear equation. The intersection, divided by the slope of the line, was defined as the observed Ki app.
Ki app (corrected)= Ki app (observed) / [ 1+ ([S]/KmNFC)] (2)

Test [7] relates to E. coli TG1 (OXA-48). Nature of the test: microbe, parasite or virus in culture. The test is classed as cell-based, Escherichia coli. Summed up:
as §4

Test [8] has as its target T1, OXA-48. The test can be described thus: Inhibition efficiency / onset of acylation (k2/K), nitrocefin reporter. Type of test: biochemical. Also on record: These primers amplified the blaOXA-48 gene without the signal peptide; GST (glutathione S-transferase, pGEX-6P-1) (N, cleaved yes); made in house; host or cells: E. coli BL21. The following applies: for k2/K: nitrocefin reporter; for kinact/KI: pH 7.4, read-out: k2/K, nitrocefin reporter. How it is done:
as §3, §5
k2/K = k2/kobs × [([S]/Km NCF) + 1] (3)

The target in test [9] is T1, OXA-48. Details: These primers amplified the blaOXA-48 gene without the signal peptide; GST (glutathione S-transferase, pGEX-6P-1) (N, cleaved yes); made in house; host or cells: E. coli BL21; method as in earlier work. The following applies: ref 5 Hecker et al.; cited from earlier work.

T1 sequence (Q6XEC0 23-265 limits assumed): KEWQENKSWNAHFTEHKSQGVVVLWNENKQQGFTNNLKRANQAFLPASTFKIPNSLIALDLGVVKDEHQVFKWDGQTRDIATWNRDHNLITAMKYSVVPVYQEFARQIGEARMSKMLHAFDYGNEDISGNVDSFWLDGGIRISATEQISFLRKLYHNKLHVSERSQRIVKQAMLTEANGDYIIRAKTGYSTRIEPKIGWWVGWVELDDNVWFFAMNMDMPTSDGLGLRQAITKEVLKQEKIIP

For `NCCN[C@H]1CC[C@H](CC(=O)N[C@H]2Cc3cccc(C(=O)O)c3OB2O)CC1` [Taniborbactam, taniborbactam], the “decrease of ertapenem MIC with BLI” value in test [1] is 8–256 fold. Besides, in test [2] (jump dilution, read-out: koff), the koff was determined as 0.00023 s⁻¹. Moreover, in test [2], the residence time is 50.2 ± 8.2 min. In [3], the “tn (partition ratio, I:E)” value came to 200. For the same molecule, the “reduction of cefepime MICs by BLI” value in test [4] (clinical isolates) was 2–512 fold. The MIC in test [5] (β-lactamase inhibitor alone) and in test [7] (Escherichia coli) was not below 128 µg/mL in each case. The molecule further registered a Ki in test [6] of 75 ± 15 nM.

Regarding `CC1=C[C@@H]2CN(C(=O)N2OS(=O)(=O)O)[C@@H]1C(N)=O` [Durlobactam, durlobactam], in [1], the “effect of ertapenem/BLI on bacterial growth” value is given as “totally inhibited bacterial growth” and the “MICs of inhibitor alone (range over strains)” value is 0.12 to 2 mg/L. For the same molecule, the dissociation rate constant (koff) in test [2] (jump dilution, read-out: koff) is 9.5e-06 s⁻¹. Further, in test [2], the Kd amounted to 0.07 ± 0.01 nM and the residence time was found to be 1220 ± 213 min. Further, in test [8], the k2/K stood at 142000 ± 38000 M⁻¹ s⁻¹ and the kinact/KI was determined as 140000 M⁻¹ s⁻¹. In addition, in [3], the “tn (partition ratio, I:E)” value was found to be 1. Further, in test [4] (18 clinical isolates), the “MIC of inhibitor alone (range over isolates)” value was in the range of 0.25 to 4 µg/mL. The molecule further gave an MIC in [5] (β-lactamase inhibitor alone) of 0.12 µg/mL (≈ 0.433 µM). The molecule also gave a Ki in test [6] of 103 ± 24 nM. The MIC in [7] (Escherichia coli) was 0.12 µg/mL (≈ 0.433 µM).

As for `NCCONC(=O)[C@@H]1CC[C@@H]2CN1C(=O)N2OS(=O)(=O)O` [Nacubactam, nacubactam], in test [1], the “effect of ertapenem/BLI on bacterial growth” value is “totally inhibited bacterial growth” and the “MICs of inhibitor alone (range over strains)” value lay in the range of 0.12 to 2 mg/L. Besides, in test [2] (jump dilution, read-out: koff), the koff was found to be 0.0002 s⁻¹. In [2], the affinity, expressed as Kd, was 41000 nM and the residence time was found to be 57.7 ± 7.5 min. Besides, the kinact/KI in test [8] stood at 4.88 ± 2.11 M⁻¹ s⁻¹. Besides, the “tn (partition ratio, I:E)” value in test [3] is reported as 70. Besides, the “decrease of meropenem MIC by BLI” value in test [4] (clinical isolates) is listed as 0–32 fold. In [5] (β-lactamase inhibitor alone), the MIC stood at 2 µg/mL (≈ 6.17 µM). The Ki in [6] was more than 800000 nM. The molecule also had an MIC in [7] (Escherichia coli) of 2 µg/mL (≈ 6.17 µM).

Consider `CC(C)(O/N=C(\C(=O)N[C@@H]1C(=O)N2C(C(=O)[O-])=C(C[n+]3ccccc3)CS[C@H]12)c1csc(N)n1)C(=O)O` [CAZ, ceftazidime], for which the MIC in test [5] (BL alone or BL/BLI: AVI, REL, TAN, DUR 4 mg/L, VAB, XER 8 mg/L, ZID, NAC 1:1) stood at 0.25 µg/mL (≈ 0.457 µM); in test [5] (ceftazidime alone or with BLI at 4 mg/L), 0.12 µg/mL (≈ 0.22 µM); in test [7] (E. coli TG1 (OXA-48), ceftazidime alone or with BLI at 4 mg/L), 0.25 µg/mL (≈ 0.457 µM); in [7] (Escherichia coli), 0.25 µg/mL (≈ 0.457 µM).

Regarding `O=C(O)c1c(F)ccc2c1OB(O)[C@@H]1C[C@H]21` [Xeruborbactam, xeruborbactam], the “decrease of ertapenem MIC with BLI” value in test [1] was 8–256 fold. The koff in test [2] (jump dilution, read-out: koff) came to 0.0002 s⁻¹. Also, in [2], binding was put at a Kd of 0.63 nM and the residence time came out at 57.7 ± 9.6 min. Also, in test [8], the k2/K came out at 310000 M⁻¹ s⁻¹ and the kinact/KI was determined as 313000 M⁻¹ s⁻¹. Moreover, in test [9], the “higher inhibitory activity (Ki) for OXA-48 than avibactam” value is reported as 96 fold and the “higher inhibitory activity (Ki) for OXA-48 than vaborbactam” value is listed as 50,000 fold. In addition, in [3], the “tn (partition ratio, I:E)” value was found to be 1. For the same molecule, in test [5] (β-lactamase inhibitor alone), the MIC was determined as 32 µg/mL (≈ 144 µM). This molecule also showed a Ki in test [6] of 18 ± 2 nM. Further, the MIC in test [7] (Escherichia coli) worked out at 32 µg/mL (≈ 144 µM).

As for `O=C(O)C[C@@H]1CC[C@H](NC(=O)Cc2cccs2)B(O)O1` [Vaborbactam, vaborbactam], in [2], the koff is recorded as 2.6 × 10^−4 ± .5 10^−4 s^−1 and the residence time stood at 44.4 ± 1.6 min. Besides, the “tn (partition ratio, I:E)” value in test [3] is reported as >3,000. The MIC in test [5] (β-lactamase inhibitor alone) is not below 128 µg/mL. The Ki in test [6] was found to be 43600 nM. This molecule yielded an MIC in test [7] (Escherichia coli) not below 128 µg/mL.
